Reference: US8686044B2, “Amide derivative, pest control agent containing the amide derivative, and use of the amide derivative” (Mitsui Chemicals Agro, Inc., priority 2008, dated 2014)

Experiments:
Type in all cases: in vivo
[1] = test system: Spodoptera litura; experiment: Pesticidal test against Spodoptera litura (cabbage leaf dip); settings: foliar, 144 h, 2-stage larvae, examined after 6 days, 25° C., read-out: pesticidal rate; for pest or weed control at 1 ppm: concentration 1 ppm
Summary of the method: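 Cabbage leaf pieces dipped 30 seconds in compound solution at a predetermined concentration and air-dried, then offered to second-stage larvae, five per group in two replicates. Held at 25° C. Living and dead larvae counted after 6 days.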

[2] = test system: Plutella xylostella; experiment: Pesticidal test against Plutella xylostella (cabbage leaf dip); settings: foliar, 144 h, 2-stage larvae, examined after 6 days, 25° C., read-out: pesticidal rate; for pest or weed control at 1 ppm: concentration 1 ppm
Summary of the method: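 Cabbage leaf pieces dipped 30 s in test solution at a predetermined concentration, air-dried, then offered to 2nd-instar larvae, five per group in duplicate. Held at 25° C; living and dead larvae counted after 6 days.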

[3] = test system: Adoxophyes honmai; experiment: Pesticidal test against Adoxophyes honmai (artificial feed dip); settings: 144 h, 2-stage larvae, examined after 6 days, 25° C., read-out: pesticidal rate; for pest or weed control at 10 ppm: concentration 10 ppm; for pest or weed control at 1 ppm: concentration 1 ppm
Protocol: (§1) Pesticidal Test against Adoxophyes honmai A thinly sliced artificial feed was immersed for 30 seconds in a chemical solution in which a test compound had been prepared at a predetermined concentration, and air-dried, and then put into a 7 cm polyethylene cup having a filter paper laid on the bottom thereof, and 2-stage larvae of Adoxophyes honmai were released. They were left to stand in a thermostatic chamber at 25° C., and the numbers of the living pests and the dead pests were examined after 6 days. The test was carried out with five larvae per group in two replicates. Further, the above compound (A) was used as a comparative compound.

[4] = test system: Choristoneura magnanima; experiment: Pesticidal test against Choristoneura magnanima (artificial feed dip); settings: 144 h, 2-stage larvae, examined after 6 days, 25° C., read-out: pesticidal rate; for pest or weed control at 1 ppm: concentration 1 ppm; for pest or weed control at 10 ppm: concentration 10 ppm
Protocol: as §1, with “Choristoneura magnanima” for “Adoxophyes honmai”

[5] = test system: Laodelphax striatellus; experiment: Pesticidal test against Laodelphax striatellus (rice seedling spray); settings: 144 h, concentration 100 ppm, 3-stage larvae, examined after 6 days, 25° C., read-out: pesticidal rate
Summary of the method: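 Rice seedlings sprayed with 2.5 ml acetone solution of compound at a predetermined concentration, air-dried, then infested with third-stage Laodelphax striatellus larvae in capped water-containing tubes at 25 °C. Living and dead insects counted after 6 days; ten larvae per group, two replicates.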

[6] = test system: Helicoverpa armigera; experiment: Pesticidal test against Helicoverpa armigera (cabbage leaf disk dip); settings: foliar, 72 h, 2-stage larvae, examined after 3 days, 25° C., read-out: pesticidal rate; for pest or weed control at 1 ppm: concentration 1 ppm
Protocol: as §1, with “Helicoverpa armigera” for “Adoxophyes honmai”, “cabbage leaf disk” for “thinly sliced artificial feed”, “air-dried. The leaf disk was” for “air-dried, and then”, “6-hole plastic” for “7 cm polyethylene”, “released with one insect being released per hole.” for “released.”, “3” for “6”

[7] = test system: Musca domestica; experiment: Pesticidal test against Musca domestica (petri dish dry film); settings: 24 h, concentration 100 ppm, female adults, examined after 1 day, 25° C., read-out: pesticidal rate
Protocol: Pesticidal Test against Musca domestica
1 ml of an acetone solution in which a test compound had been prepared at a predetermined concentration was added dropwise to a petri dish having a diameter of 9 cm, and air-dried, and then the female adults of Musca domestica were released and the petri dish was capped. They were left to stand in a thermostatic chamber at 25° C., and the numbers of the living pests and the dead pests were examined after 1 day. The test was carried out with five larvae per group in two replicates.

CN(C(=O)c1ccccc1)c1cccc(C(=O)Nc2c(I)cc(C(F)(C(F)(F)F)C(F)(F)F)cc2I)c1F [7-1260]
≥ 70%: pest or weed control at 1 ppm [1] | pest or weed control at 1 ppm [2] | pest or weed control at 10 ppm [3] | pest or weed control at 1 ppm [4] | pest or weed control at 100 ppm [5]

CN(C(=O)c1ccc(F)cc1)c1cccc(C(=O)Nc2c(I)cc(C(F)(C(F)(F)F)C(F)(F)F)cc2I)c1F [7-1263]
≥ 70%: pest or weed control at 1 ppm [1] | pest or weed control at 1 ppm [2] | pest or weed control at 10 ppm [3] | pest or weed control at 1 ppm [4] | pest or weed control at 1 ppm [6] | pest or weed control at 100 ppm [5]

CN(C(=O)c1ccc(C#N)cc1)c1cccc(C(=O)Nc2c(I)cc(C(F)(C(F)(F)F)C(F)(F)C(F)(F)F)cc2C(F)(F)F)c1 (stereo not shown) [7-523]
≥ 70%: pest or weed control at 1 ppm [1] | pest or weed control at 1 ppm [2] | pest or weed control at 10 ppm [3] | pest or weed control at 1 ppm [4] | pest or weed control at 1 ppm [6]

O=C(Nc1cccc(C(=O)Nc2c(Br)cc(C(F)(C(F)(F)F)C(F)(F)C(F)(F)F)cc2C(F)(F)F)c1)c1ccc(F)cc1 (stereo not shown) [6-349]
≥ 70%: pest or weed control at 1 ppm [1] | pest or weed control at 1 ppm [2] | pest or weed control at 1 ppm [3] | pest or weed control at 1 ppm [4] | pest or weed control at 1 ppm [6]

O=C(Nc1cccc(C(=O)Nc2c(Br)cc(C(F)(C(F)(F)F)C(F)(F)C(F)(F)F)cc2C(F)(F)F)c1F)c1cccc(F)c1 (stereo not shown) [6-1654]
≥ 70%: pest or weed control at 1 ppm [1] | pest or weed control at 1 ppm [2] | pest or weed control at 1 ppm [3] | pest or weed control at 1 ppm [4] | pest or weed control at 1 ppm [6] | pest or weed control at 100 ppm [5]

CN(C(=O)c1ccc(C#N)cc1)c1cccc(C(=O)Nc2c(I)cc(C(F)(C(F)(F)F)C(F)(F)C(F)(F)F)cc2I)c1F (stereo not shown) [7-1359]
≥ 70%: pest or weed control at 1 ppm [1] | pest or weed control at 1 ppm [2] | pest or weed control at 1 ppm [4] | pest or weed control at 1 ppm [6] | pest or weed control at 100 ppm [5] | pest or weed control at 100 ppm [7]

O=C(Nc1c(I)cc(C(F)(C(F)(F)F)C(F)(F)C(F)(F)F)cc1I)c1cccc(NC(=O)c2c(F)cccc2F)c1 (stereo not shown) [6-80]
≥ 70%: pest or weed control at 1 ppm [1] | pest or weed control at 1 ppm [2] | pest or weed control at 1 ppm [3] | pest or weed control at 1 ppm [4] | pest or weed control at 1 ppm [6] | pest or weed control at 100 ppm [5]

CN(C(=O)c1ccc(C#N)cc1)c1cccc(C(=O)Nc2c(I)cc(C(F)(C(F)(F)F)C(F)(F)F)cc2I)c1F [7-1281]
≥ 70%: pest or weed control at 1 ppm [1] | pest or weed control at 1 ppm [2] | pest or weed control at 1 ppm [4] | pest or weed control at 100 ppm [5]

O=C(Nc1c(I)cc(C(F)(C(F)(F)F)C(F)(F)F)cc1C(F)(F)F)c1cccc(NC(=O)c2c(F)cccc2F)c1 [6-446]
≥ 70%: pest or weed control at 1 ppm [1] | pest or weed control at 1 ppm [2] | pest or weed control at 1 ppm [3] | pest or weed control at 10 ppm [4] | pest or weed control at 1 ppm [6] | pest or weed control at 100 ppm [5]

CN(C(=O)c1ccc(C#N)cc1F)c1cccc(C(=O)Nc2c(Br)cc(C(F)(C(F)(F)F)C(F)(F)F)cc2C(F)(F)F)c1F [7-1606]
≥ 70%: pest or weed control at 1 ppm [1] | pest or weed control at 1 ppm [2] | pest or weed control at 10 ppm [4] | pest or weed control at 1 ppm [6] | pest or weed control at 100 ppm [5]

N#Cc1ccc(C(=O)Nc2cccc(C(=O)Nc3c(I)cc(C(F)(C(F)(F)F)C(F)(F)C(F)(F)F)cc3C(F)(F)F)c2F)cc1 (stereo not shown) [6-1829]
≥ 70%: pest or weed control at 1 ppm [1] | pest or weed control at 1 ppm [2] | pest or weed control at 1 ppm [4] | pest or weed control at 1 ppm [6] | pest or weed control at 100 ppm [5] | pest or weed control at 100 ppm [7]

O=C(Nc1cccc(C(=O)Nc2c(Br)cc(C(F)(C(F)(F)F)C(F)(F)F)cc2C(F)(F)F)c1)c1ccc(F)cc1 [6-271]
≥ 70%: pest or weed control at 1 ppm [1] | pest or weed control at 1 ppm [2] | pest or weed control at 10 ppm [3] | pest or weed control at 1 ppm [4] | pest or weed control at 1 ppm [6] | pest or weed control at 100 ppm [5]

O=C(Nc1cccc(C(=O)Nc2c(Br)cc(C(F)(C(F)(F)F)C(F)(F)F)cc2C(F)(F)F)c1F)c1ccccc1 [6-1574]
≥ 70%: pest or weed control at 1 ppm [1] | pest or weed control at 1 ppm [2] | pest or weed control at 1 ppm [3] | pest or weed control at 1 ppm [4] | pest or weed control at 1 ppm [6] | pest or weed control at 100 ppm [5]

O=C(Nc1c(Br)cc(C(F)(C(F)(F)F)C(F)(F)C(F)(F)F)cc1C(F)(F)F)c1cccc(NC(=O)c2c(F)cccc2F)c1F (stereo not shown) [6-1674]
≥ 70%: pest or weed control at 1 ppm [1] | pest or weed control at 1 ppm [2] | pest or weed control at 1 ppm [3] | pest or weed control at 1 ppm [4] | pest or weed control at 1 ppm [6] | pest or weed control at 100 ppm [5]

CN(C(=O)c1ccccc1)c1cccc(C(=O)Nc2c(I)cc(C(F)(C(F)(F)F)C(F)(F)C(F)(F)F)cc2I)c1F (stereo not shown) [7-1338]
≥ 70%: pest or weed control at 1 ppm [1] | pest or weed control at 1 ppm [2] | pest or weed control at 1 ppm [3] | pest or weed control at 1 ppm [6] | pest or weed control at 100 ppm [5] | pest or weed control at 100 ppm [7]

O=C(Nc1cccc(C(=O)Nc2c(Br)cc(C(F)(C(F)(F)F)C(F)(F)C(F)(F)F)cc2Br)c1F)c1ccccc1 (stereo not shown) [6-1182]
≥ 70%: pest or weed control at 1 ppm [1] | pest or weed control at 1 ppm [2] | pest or weed control at 1 ppm [3] | pest or weed control at 1 ppm [4] | pest or weed control at 100 ppm [5]

COc1cc(C(F)(C(F)(F)F)C(F)(F)F)cc(C)c1NC(=O)c1cccc(N(C)C(=O)c2ccccc2)c1 [compound (A), reference compound]
≤ 50%: pest or weed control at 10 ppm ([1]; concentration 10 ppm) | pest or weed control at 10 ppm ([2]; concentration 10 ppm) | pest or weed control at 10 ppm [3] | pest or weed control at 10 ppm [4] | pest or weed control at 10 ppm ([6]; concentration 10 ppm)

CN(C(=O)c1ccc(C#N)cc1)c1cccc(C(=O)Nc2c(I)cc(C(F)(C(F)(F)F)C(F)(F)C(F)(F)F)cc2C(F)(F)F)c1F (stereo not shown) [7-1829]
≥ 70%: pest or weed control at 1 ppm [1] | pest or weed control at 1 ppm [2] | pest or weed control at 1 ppm [4] | pest or weed control at 1 ppm [6] | pest or weed control at 100 ppm [5] | pest or weed control at 100 ppm [7]

N#Cc1ccc(C(=O)Nc2cccc(C(=O)Nc3c(Br)cc(C(F)(C(F)(F)F)C(F)(F)C(F)(F)F)cc3C(F)(F)F)c2F)cc1 (stereo not shown) [6-1673]
≥ 70%: pest or weed control at 1 ppm [1] | pest or weed control at 1 ppm [2] | pest or weed control at 1 ppm [4] | pest or weed control at 1 ppm [6] | pest or weed control at 100 ppm [5] | pest or weed control at 100 ppm [7]

CN(C(=O)c1cccc(C#N)c1)c1cccc(C(=O)Nc2c(Br)cc(C(F)(C(F)(F)F)C(F)(F)F)cc2Br)c1F [7-1124]
≥ 70%: pest or weed control at 1 ppm [1] | pest or weed control at 1 ppm [2] | pest or weed control at 10 ppm [3] | pest or weed control at 1 ppm [4] | pest or weed control at 100 ppm [5]

CN(C(=O)c1cccc(F)c1)c1cccc(C(=O)Nc2c(I)cc(C(F)(C(F)(F)F)C(F)(F)C(F)(F)F)cc2C(F)(F)F)c1 (stereo not shown) [7-504]
≥ 70%: pest or weed control at 1 ppm [1] | pest or weed control at 1 ppm [2] | pest or weed control at 1 ppm [4] | pest or weed control at 100 ppm [7]

CN(C(=O)c1cccnc1Cl)c1cccc(C(=O)Nc2c(I)cc(C(F)(C(F)(F)F)C(F)(F)C(F)(F)F)cc2I)c1 (stereo not shown) [7-90]
≥ 70%: pest or weed control at 1 ppm [1] | pest or weed control at 1 ppm [2] | pest or weed control at 1 ppm [4] | pest or weed control at 1 ppm [6] | pest or weed control at 100 ppm [5] | pest or weed control at 100 ppm [7]
